From patent publication US12415771B2, “Compounds for the treatment of neuromuscular disorders” (NMD PHARMA A/S, priority 2019, dated 2025)
Like-named read-outs stand apart in the source and are kept apart here.

Experiments:
female Lewis rats = experiment: In situ isometric hindlimb force in anaesthetised rats under partial neuromuscular block by Cisatracurium; format: in vivo; conditions: Rattus norvegicus, iv, read-out: increase in tetanic force
Procedure: Isometric hindlimb force was measured in 12-week old female Lewis rats in the presence and absence of compound.
Rats were placed under anesthesia with isoflurane (2-4%), intubated and subsequently connected to a micro ventilator (Microvent 1, Hallowell EMC, US). Two stimulation electrodes were inserted through the skin to stimulate the sciatic nerve. A small incision was made proximal to the ankle, to expose the Achilles tendon, which was tied by cotton string, and connected to a force transducer (Fort250, World Precision Instruments) with adjustable position (Vernier control). The Achilles tendon was then cut distal to the attached cotton string. The rat was placed on a heated pad, and to prevent movement artefacts from contraction of the ankle dorsiflexors, the foot was fixated by tape on a footplate.
Muscle contractile properties were assessed by applying an electrical current (under supramaximal voltage conditions) to the nerve and recording the force generated by the muscle. The muscle was stretched until maximal force was obtained, when assessed by 2 Hz stimulation. Isometric force was measured every 30 seconds at 12 Hz (Twitch), 10 pulses, and at every 5 minutes at 80 Hz (Tetanic) for 1 second (80 pulses). This stimulation pattern was employed throughout the experiment, expect in few cases where 80 Hz stimulation was replaced by 12 Hz (10 pulses). […] When the level of neuromuscular inhibition was stable, the test article was injected i.v. at the chosen concentration. The effect of test article was assessed on its ability to increase force generated from the stimulation pattern applied. The effect was assessed in the ability to increase force per se (tetanic, 80 Hz, stimulation), and the ratio between individual twitch peaks (12 Hz stimulation). The effect was monitored for at least 1 hour after injection of test article. In addition, the time from injection of test article to maximal effect on force (both twitch and tetanic) was noted and the time for the effect to disappear (return to baseline), if possible. When appropriate the infusion of neuromuscular blocking agent was ceased, with the stimulation pattern continued, and the return of force to control levels was monitored. Animals were sacrificed by cervical dislocation while still fully sedated.

[1] = tested on: isolated rat soleus muscles; experiment: Recovery of nerve-stimulated contractile force in isolated rat soleus nerve-muscle preparation exposed to tubocurarine; conditions: 40 min, read-out: Point increase (%) of initial force that was restored
Procedure: Recovery of force is quantified as the percentage of the force prior to tubocurarine that is recovered by the compound.
The current disclosure relates to compounds that inhibit CIC-1 ion channels and increase muscle excitability and thereby improve muscle function in clinical conditions where muscle activation is failing. Such conditions result in loss of contractile function of skeletal muscle, weakness and excessive fatigue. In this series of experiments the compounds were tested for their ability to restore contractile function of isolated rat muscle when the neuromuscular transmission had been compromised akin to neuromuscular disorders.
Experimentally, soleus muscles from 4-5 wk old rats were isolated with the motor nerve remaining attached. The nerve-muscle preparations were mounted in experimental setups that enabled electrical stimulation of the motor nerve. Stimulation of the motor nerve led to activation of the muscle fibres and ensuing force production that was recorded.
After mounting the nerve-muscle preparation in the experimental setup, the contractile function of the muscle was initially assessed under the control conditions (FIG. 2A). […] The experimental condition mimics the failing neuromuscular transmission in a range of neuromuscular disorders. After addition of tubocurarine the contractile force declined over the next 90 mins to 10-50% of the control force. 50 μM of the test compound was then added and the contractile force recovered despite the continued presence of tubocurarine. To quantify the ability of the compound to restore force the percentage of the initial force that was restored was determined after 40 mins of compound exposure (FIG. 2B) and the point increase is reported in Table 3.

CIC-1 ion channel = target: T1, CIC-1 ion channel (Rattus norvegicus, UniProt P35524); experiment: Electrophysiological measurement (Gm, three micro-electrode technique) of compound inhibition of CIC-1 in rat soleus muscle fibres; format: cell-based; conditions: whole rat soleus muscle, Gm at four increasing concentrations, approx. 30° C., mean ± spread
T1 construct: from tissue; host or cells: intact soleus muscle of 12-14 week old Wistar rats
T1 sequence (P35524 1-994): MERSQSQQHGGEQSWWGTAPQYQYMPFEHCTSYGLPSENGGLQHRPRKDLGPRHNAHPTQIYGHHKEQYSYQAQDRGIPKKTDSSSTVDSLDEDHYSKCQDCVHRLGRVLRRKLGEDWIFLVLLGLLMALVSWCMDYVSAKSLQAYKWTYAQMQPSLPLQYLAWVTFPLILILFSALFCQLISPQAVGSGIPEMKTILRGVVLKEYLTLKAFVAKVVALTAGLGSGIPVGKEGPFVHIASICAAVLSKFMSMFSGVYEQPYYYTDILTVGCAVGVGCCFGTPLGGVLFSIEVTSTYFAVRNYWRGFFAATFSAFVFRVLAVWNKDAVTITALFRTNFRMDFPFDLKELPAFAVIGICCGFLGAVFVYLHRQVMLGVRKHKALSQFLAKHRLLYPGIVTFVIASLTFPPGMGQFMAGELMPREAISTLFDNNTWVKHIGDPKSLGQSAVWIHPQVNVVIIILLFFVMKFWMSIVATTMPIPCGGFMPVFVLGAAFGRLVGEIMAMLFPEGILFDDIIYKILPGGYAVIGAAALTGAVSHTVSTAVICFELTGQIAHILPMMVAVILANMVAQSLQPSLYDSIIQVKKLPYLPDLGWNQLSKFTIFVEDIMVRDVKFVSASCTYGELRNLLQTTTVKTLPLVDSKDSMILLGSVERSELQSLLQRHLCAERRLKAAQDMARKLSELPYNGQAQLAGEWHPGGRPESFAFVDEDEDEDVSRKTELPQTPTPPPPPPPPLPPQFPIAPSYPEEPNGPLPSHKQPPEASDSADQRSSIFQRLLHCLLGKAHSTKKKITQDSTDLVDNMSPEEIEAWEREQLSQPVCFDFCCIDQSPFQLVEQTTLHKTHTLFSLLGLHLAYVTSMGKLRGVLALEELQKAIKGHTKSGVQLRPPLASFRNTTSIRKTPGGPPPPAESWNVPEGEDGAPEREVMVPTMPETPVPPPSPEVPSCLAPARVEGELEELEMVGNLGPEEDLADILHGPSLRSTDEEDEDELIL

[2] = tested on: isolated rat soleus muscles; experiment: Recovery of nerve-stimulated contractile force in isolated rat soleus nerve-muscle preparation exposed to tubocurarine; conditions: FIG. 2: 50 μM compound added after 90 min incubation in tubocurarine, 3 muscles
[3] = 50 μM test compound, after 40 mins exposure, 115 nM tubocurarine for 90 mins, rat soleus

Row | SMILES | activation at 50 µM ([1]; Rattus norvegicus) | EC50 (CIC-1 ion channel) | activation at 50 µM [1, 3] | also measured
1 | CCC(F)(F)c1cc(Cl)c(F)cc1O[C@@H](C)C(=O)O [Compound A-32, (2S)-2-[4-chloro-2-(1,1-difluoropropyl)-5-fluorophenoxy]propanoic acid] | 41% | 2.3 ± 0.6 µM |  | change in vivo at 11.2 mg/kg (female Lewis rats): 75%
2 | C#Cc1ccc(O[C@@H](C)C(=O)O)c(C(F)(F)CC)c1 [Compound A-23, (2S)-2-[2-(1,1-difluoropropyl)-4-ethynylphenoxy]propanoic acid] |  | 6.1 ± 1.1 µM | 37% | change in vivo at 18.8 mg/kg (female Lewis rats; 18.8 mg/kg i.v., 80 Hz stimulation, Cisatracurium block): 40%
3 | CCC(F)(F)c1cc(Cl)ccc1O[C@@H](C)C(=O)O [Compound A-5, (2S)-2-[4-chloro-2-(1,1-difluoropropyl)phenoxy]propanoic acid] | 53% | 4 ± 2.1 µM |  | change in vivo at 10.5 mg/kg (female Lewis rats): 47%
4 | CCC(F)(F)c1cc(Br)ccc1O[C@@H](C)C(=O)O [Compound A-3, (2S)-2-[4-bromo-2-(1,1-difluoropropyl)phenoxy]propanoic acid] |  | 3.5 ± 0.4 µM | 54% | change in vivo at 17.5 mg/kg (female Lewis rats; 17.5 mg/kg i.v., 80 Hz stimulation, Cisatracurium block): 64%; average force (AUC) relative to initial force [2]: recovered
5 | CCC(F)(F)c1cc(Br)c(F)cc1OCC(=O)O [Compound A-31, 2-[4-bromo-2-(1,1-difluoropropyl)-5-fluorophenoxy]acetic acid] |  | 5.5 ± 0.2 µM | 43% | change in vivo at 11.4 mg/kg (female Lewis rats; 11.4 mg/kg i.v., 80 Hz stimulation, Cisatracurium block): 14%
6 | C[C@H](Oc1cc(F)c(Br)cc1C(C)(F)F)C(=O)O [Compound A-29, (2S)-2-[4-bromo-2-(1,1-difluoroethyl)-5-fluorophenoxy]propanoic acid] | 46% | 5.5 ± 1.7 µM |  | change in vivo at 22.9 mg/kg (female Lewis rats): 76%
7 | CCC(F)(F)c1cc(Cl)ccc1O[C@@H](CF)C(=O)O [Compound A-22, (2R)-2-[4-chloro-2-(1,1-difluoropropyl)phenoxy]-3-fluoropropanoic acid] | 65% | 3.3 ± 1.2 µM |  | change in vivo at 10.4 mg/kg (female Lewis rats): 57%
